This note sets out measurements from patent publication US5175158A, “Condensed diazepinones, processes for preparing them and pharmaceutical compositions containing these compounds” (Dr. Karl Thomae, GmbH, priority 1987, dated 1992).

The structures appear in SMILES notation.

In assay [1] the test system is acetylcholine activity on heart rate. The assay can be described thus: Inhibition of acetylcholine activity on heart rate in the guinea pig. The format is in vivo. Conditions: Cavia porcellus, iv, 5 min; anaesthetised guinea pig; 5 minutes after test substance; 10 microgram/kg acetylcholine i.v. and i.a.; heart rate by ECG; read-out: log ED50, Heart (converted). The protocol:
(§1) 5 minutes after the administration of the test substance, 10 microgram/kg of acetylcholine were simultaneously injected intravenously and intra-arterially into anaesthetised guinea pigs. The heart rate was recorded directly by extracorporeal derivation of the ECG, the expiration resistance according to Konzett-Rossler and contraction of the exposed bladder. In order to determine the inhibition of the acetylcholine activity on the organs under investigation, dosage/activity curves were recorded and from them -log ED50 values were determined. […] The following compounds for example were investigated as described above: […]

The next assay concerns vagal bradycardia (M2). The assay can be described thus: M1/M2 selectivity in the rat: reduction of vagal bradycardia (M2). The format is in vivo, rat (male THOM). Particulars: iv, 5 minutes before vagus stimulation, 50% reduction of vagal bradycardia (M2), read-out: log ED50, Heart (converted). The protocol:
(§2) The dosage of the substances which reduced either the vagal bradycardia (M2) or the rise in blood pressure (M1) by 50% was determined graphically. For the results see Table II.

In assay [2] the test system is rise in blood pressure (M1). The assay can be described thus: M1/M2 selectivity in the rat: reduction of rise in blood pressure caused by McN-A-343 (M1). In kind it is in vivo, rat (male THOM). Particulars: iv, 5 minutes before 0.3 mg/kg McN-A-343 i.v., 50% reduction of rise in blood pressure (M1), read-out: log ED50, Blood pressure (converted). The protocol:
as §2

In assay [3] the test system is acetylcholine activity on bladder. The assay can be described thus: Inhibition of acetylcholine activity on the bladder in the guinea pig. In kind it is in vivo. Conditions: Cavia porcellus, iv, 5 min; anaesthetised guinea pig; 5 minutes after test substance; 10 microgram/kg acetylcholine i.v. and i.a.; contraction of exposed bladder; read-out: log ED50, Bladder (converted). The protocol:
as §1

The next assay deals with secretion of saliva. The assay can be described thus: Salivation-inhibiting effect in the rat (pilocarpine). The format is in vivo, rat (male THOM). Conditions: iv; urethane-anaesthetised rat; i.v.; 2 mg/kg pilocarpine s.c.; 50% reduction of saliva volume; read-out: log ED50, Salivation (converted). The protocol:
The secretion of saliva was initiated by subcutaneous administration of 2 mg/kg of pilocarpine. The saliva was absorbed with blotting paper and the surface area covered was measured every 5 minutes by planimetry. The dosage of the substance which reduced the volume of saliva by 50% was determined graphically. For the results see Table II.

Assay [4] concerns acetylcholine activity on bronchi. The assay can be described thus: Inhibition of acetylcholine activity on the bronchi in the guinea pig. Conditions: Cavia porcellus, iv, 5 min; anaesthetised guinea pig; 5 minutes after test substance; 10 microgram/kg acetylcholine i.v. and i.a.; expiration resistance (Konzett-Rossler); read-out: log ED50, Bronchi (converted). In kind it is in vivo. The protocol: as §1

Assay [5] has as its target muscarinic receptors (cerebral cortex). The assay can be described thus: Receptor binding test in vitro, cerebral cortex (3H-N-methylscopolamine displacement). Also noted: species or system rat (male Sprague-Dawley). Particulars: 0.3 nanomolar 3H-NMS, 30° C., 45 minutes, pH 7.4. The protocol: (§3) The organs were donated by male Sprague-Dawley rats weighing 180-220 g. After the heart and submandibular gland and cerebral cortex had been removed, all other steps were carried out in ice cold Hepes HCl buffer (pH 7.4; 100 millimolar NaCl, 10 millimolar MgCl2). The whole heart was cut up with scissors. All the organs were then homogenised in a Potter apparatus.
(§4) For the binding test the homogenised organs were diluted as follows:
(§5) The homogenised organs were incubated at a certain concentration of the radioaligned and at a series of concentrations of the non-radioactive test substances in an Eppendorf centrifuge tube at 30° C. Incubation lasted 45 minutes. The radioligand used was 0.3 nanomolar ^3 H-N-methylscopolamine (^3 H-NMS). Incubation was ended by the addition of ice cold buffer followed by vacuum filtration. The filters were rinsed with cold buffer and their radioactivity was determined. It represents the sum of specific and non-specific binding of ^3 H-NMS. The proportion of non-specific binding was defined as the radioactivity which was bound in the presence of 1 micromolar quinuclidinylbenzylate. Each measurement was taken four times. The IC50 values of the non-labelled test substances were determined graphically. They represent that concentration of test substance at which the specific binding of ^3 H-NMS to the muscarinic receptors in the various organs was inhibited by 50%. […] PG,17

The target in assay [6] is T1, muscarinic receptors (heart) (Rattus norvegicus, UniProt P10980).
T1 construct: The whole heart was cut up with scissors; All the organs were then homogenised in a Potter apparatus; from tissue; host or cells: rat whole heart homogenate
T1 sequence (P10980 1-466): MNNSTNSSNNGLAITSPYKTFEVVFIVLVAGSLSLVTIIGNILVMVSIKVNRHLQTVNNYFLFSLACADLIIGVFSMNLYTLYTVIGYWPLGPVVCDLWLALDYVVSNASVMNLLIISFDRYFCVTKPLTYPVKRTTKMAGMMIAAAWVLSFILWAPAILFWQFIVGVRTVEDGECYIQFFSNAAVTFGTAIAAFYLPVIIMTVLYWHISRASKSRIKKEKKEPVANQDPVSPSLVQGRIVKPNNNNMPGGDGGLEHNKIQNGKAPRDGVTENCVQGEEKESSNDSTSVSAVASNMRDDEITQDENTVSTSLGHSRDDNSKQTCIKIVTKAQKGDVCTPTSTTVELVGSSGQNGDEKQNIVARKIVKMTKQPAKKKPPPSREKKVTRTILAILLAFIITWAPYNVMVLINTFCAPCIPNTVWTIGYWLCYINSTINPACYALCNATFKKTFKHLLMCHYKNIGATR
The assay can be described thus: Receptor binding test in vitro, heart (3H-N-methylscopolamine displacement). More on the design: species or system rat (male Sprague-Dawley). Conditions: whole heart; 0.3 nanomolar 3H-NMS; 30° C.; 45 minutes; pH 7.4. The protocol: as §3, §4, §5

The target in assay [7] is T2, muscarinic receptors (submandibular gland) (Rattus norvegicus, UniProt P08483).
T2 construct: All the organs were then homogenised in a Potter apparatus; from tissue; host or cells: rat submandibular gland homogenate
T2 sequence (P08483 whole entry): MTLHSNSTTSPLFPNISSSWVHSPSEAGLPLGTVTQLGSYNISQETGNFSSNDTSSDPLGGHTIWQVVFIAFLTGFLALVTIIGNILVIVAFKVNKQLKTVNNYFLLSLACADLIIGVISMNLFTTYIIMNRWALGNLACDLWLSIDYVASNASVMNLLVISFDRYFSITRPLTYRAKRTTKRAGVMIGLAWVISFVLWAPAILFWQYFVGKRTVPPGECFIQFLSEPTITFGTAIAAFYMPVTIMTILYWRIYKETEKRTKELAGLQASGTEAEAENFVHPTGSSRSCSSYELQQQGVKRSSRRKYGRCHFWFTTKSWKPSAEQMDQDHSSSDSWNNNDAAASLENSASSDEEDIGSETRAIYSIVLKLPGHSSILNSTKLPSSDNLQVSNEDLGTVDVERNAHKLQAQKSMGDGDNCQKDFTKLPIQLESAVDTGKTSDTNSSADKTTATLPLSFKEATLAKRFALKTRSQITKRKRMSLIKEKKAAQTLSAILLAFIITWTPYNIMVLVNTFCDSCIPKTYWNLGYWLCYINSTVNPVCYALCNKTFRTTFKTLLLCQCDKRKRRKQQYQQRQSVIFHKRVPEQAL
The assay can be described thus: Receptor binding test in vitro, submandibular gland (3H-N-methylscopolamine displacement). More on the design: species or system rat (male Sprague-Dawley). Conditions: 0.3 nanomolar 3H-NMS, 30° C., 45 minutes, pH 7.4. The protocol: as §3, §4, §5

By ED50 is commonly meant the dose that gives a 50% effect, or the effect in half of the subjects. `CN1[C@@H]2CC[C@H]1CC(OC(=O)C(CO)c1ccccc1)C2` (stereo partly drawn) [G]: the ED50 is 0.02 µmol/kg in assay [1], 0.0115 µmol/kg with vagal bradycardia (M2), 0.0457 µmol/kg in assay [2] and 0.0933 µmol/kg in [3].

Regarding `CCN(CC)CC1CCCCN1CC(=O)N1c2ccccc2C(=O)Nc2cccnc21` (stereo not drawn) [Substance E, 11-[[2-[(diethylamino)methyl]-1-piperidinyl]acetyl]-5,11-dihydro-6H-pyrido [2,3-b][1,4]benzodiazepin-6-one, reference compound], the ED50 in assay [1] was 1.45 µmol/kg; in the assay on vagal bradycardia (M2) it was 0.38 µmol/kg; in the assay with secretion of saliva, 10 µmol/kg; in assay [4], 2.63 µmol/kg; in [3] it was 18.6 µmol/kg.

With `CN1CCN(CC(=O)N2c3ccccc3C(=O)Nc3cccnc32)CC1` [F], the ED50 is 1.41 µmol/kg in assay [1], 0.269 µmol/kg in [4] and 4.37 µmol/kg in assay [3].

One may read the IC50 as the point on the concentration scale where inhibition reaches its midpoint. The low end stands for inhibition by little substance, the high end for a need for much substance. `O=C1Nc2cccnc2N(C(=O)CN2CCC(CCCN3CCCCC3)CC2)c2ccccc21` [B]: the figures for the ED50 in assay [1], in assay [4] and in assay [3] were 0.123 µmol/kg, 0.468 µmol/kg and 1.82 µmol/kg, respectively. Moreover, the IC50 turned out to be 200 nM in assay [5], 20 nM in [6] and 550 nM in [7].

`O=C1Nc2cccnc2N(C(=O)CN2CCC(CCCCN3CCCCC3)CC2)c2ccccc21` [C]: the ED50 in assay [1] was 0.0871 µmol/kg; with vagal bradycardia (M2), 0.115 µmol/kg; in assay [2] it was 3.8 µmol/kg; with secretion of saliva, above 31.6 µmol/kg; in [4] it was 0.661 µmol/kg; in assay [3], 2.63 µmol/kg. Also, the figures for the IC50 in [5], in [6] and in [7] were 50 nM, 9 nM and 200 nM, respectively.

With `Cc1scc2c1N(C(=O)CN1CCC(CCCN3CCCCC3)CC1)c1ccccc1NC2=O` [A], the ED50 in assay [1] is 0.123 µmol/kg; in the assay on vagal bradycardia (M2), 0.0724 µmol/kg; in assay [2], 1.51 µmol/kg; with secretion of saliva, 6.31 µmol/kg; in assay [4], 0.282 µmol/kg; in assay [3] it was 2.75 µmol/kg. The IC50 turned out to be 60 nM in assay [5], 5 nM in assay [6] and 200 nM in [7].

On to `CN1CCC(CCCC2CCN(CC(=O)N3c4ccccc4C(=O)Nc4cccnc43)CC2)CC1` [D], for which the ED50 is 0.355 µmol/kg in assay [1], 0.851 µmol/kg in assay [4] and above 10 µmol/kg in assay [3]. Also, the results for the IC50 in assay [5], in assay [6] and in assay [7] were 500 nM, 50 nM and 1500 nM, respectively.
